17 compounds from US5157039A, “2-quinolinyl methoxy compounds, medical uses and intermediates therefor” (Leo Pharmaceutical Products Ltd., priority 1985, dated 1992) can be followed below.

Assay [1] deals with leukotriene D4-induced contraction of guinea-pig ileum strips. The experiment in a line: Leukotriene D4-induced contraction of isolated guinea-pig ileum strips (leukotriene antagonism). The settings on record: leukotriene D4 10^-9 M; atropine and indomethacin present. An excerpt: Antagonism of leukotriene mediated effects at the receptor level, in addition to inhibition of leukotriene synthesis, is an additional mode of action of some of the present compounds. Obviously, this dual mechanism is of potentially great interest in preventing leukotriene mediated reactions.
Leukotriene antagonists may be identified by observing the contractions elicited in preparations of guinea-pig ileum strips suspended in physiological buffers by addition of pure leukotriene D4. The ileum strips are connected to an isotonic transducer, and the contractions are continuously recorded on a multichannel recorder.
Before addition of leukotriene D4, atropine and indomethacin are added to the buffer in order to block any cholinergic or prostaglandin-mediated contractile effects. Test compounds to be studied with respect to leukotriene antagonism are dissolved in dimethylsulphoxide (DMSO) and added to the organ bath 2 minutes prior to addition of leukotriene D4 at 10^-9 M (final concentration), the final concentration of DMSO being 0.1%, a concentration which can be shown not to affect the ileum response to leukotriene D4. The test compounds may be added at various concentrations, often beginning at 10^-6 M and then decreasing the concentration in case of antagonism.

The subject of assay [2] is gene expression of IL-8. The assay can be described thus: Gene expression of IL-8 in endothelial cells, fibroblasts and keratinocytes stimulated by LPS or IL-1. The class given is cell-based. An excerpt:
(§1) These effects were obtained using submicromolar concentrations of the two compounds.

Assay [3] relates to IL-1 mRNA in PBMC. The experiment in a line: IL-1 mRNA production in LPS-stimulated PBMC. In kind it is cell-based.
Text: as §1

Assay [4] concerns IL-8 mRNA in peripheral blood mononuclear cells (PBMC). The assay can be described thus: IL-8 mRNA synthesis in LPS-stimulated peripheral blood mononuclear cells (cDNA probe). In kind it is cell-based. The settings on record: submicromolar concentrations.
Text: as §1

The subject of assay [5] is IL-1 release from inflammatory cells. The experiment in a line: IL-1 release from inflammatory cells. In kind it is cell-based.
Text: as §1

In assay [6] the test system is rat peritoneal mast cell. The experiment in a line: Rat peritoneal mast cell histamine release. In kind it is cell-based. The text has this:
Products formed by the enzyme responsible for the first step in leukotriene synthesis, 5-lipoxygenase, which is probably the target enzyme of compounds of the present invention, play a role as mediators of mast cell degranulation. One of the effects of mast cell degranulation is the release of histamine. Thus, 5-lipoxygenase inhibitors may suppress histamine release from mast cells.
In order to investigate this possibility, cells obtained from washings of the peritoneal cavity of rats, were studied. These peritoneal washings contain mainly macrophages and mast cells. The mast cells were passively sensitized with IgE-antibodies to ovalbumin, and then challenged with the antigen, ovalbumin, to induce histamine release. Alternatively, the unsensitized mast cells were exposed to an […], compound 48/80*, which induces histamine release independently of immunologic mechanisms. Histamine released to the medium after degranulation of the peritoneal mast cells was measured by a fluorometric method.
* (the condensation product of N-methyl-p-methoxyphenethylamine with formaldehyde)

Assay [7] has as its system release of leukotrienes. The experiment in a line: A 23187-induced leukotriene release in the peritoneal cavity of rats in vivo. Also noted: species or system rat. The note with it: administered prior to intraperitoneal A 23187. The method, then:
Two in vivo methods were used to assess the effect of either oral or parenteral administration of the compounds to experimental animals on the release of leukotrienes. In the first method, calcium ionophore A 23187 was injected into the peritoneal cavity of adrenalectomized and anaestesized rats. 5 minutes later the cavity was washed, and the leukotrienes were extracted with ethanol and redissolved in water or buffer. The amount of leukotriene D4 released in response to A 23187 was determined by bioassay, using the contraction of an isolated guinea-pig ileum-strip as indicator. Leukotriene C4 and B4 were measured by commercially available radioimmunoassays (New England Nuclear, Dreieich, West Germany, and The Radiochemical Centre, Amersham, U. K., respectively).

For assay [8], the system named is cyclooxygenase. The assay can be described thus: Synthesis of cyclooxygenase products in A 23187-stimulated rat peritoneal cells (same assay). In kind it is cell-based. The settings on record: final concentrations from 10^-6 M and above. Here is the method:
(§2) The biological activity of the present compounds was determined both in vitro and in vivo. The following method was used to assay 5-lipoxygenase activity in vitro: Rat peritoneal cells were harvested by i.p. injection of 10 ml Hank's balanced salt solution (GIBCO), cat. No. 4025, U.S.A.) containing 12.5 U/ml sodium heparin (Leo, Denmark) in anaesthesized rats. The resulting cell suspension, which mainly contained macrophages, was transferred to a test tube and washed twice by centrifugation (200 g, 10 min.) and resuspended in Hank's balanced salt solution containing 0.5% bovine serum albumin (Sigma Chem. Co., U.S.A.). The cells from 6 rats were finally resuspended in Hank's balanced salt solution containing 5 μCi (1-^14 C) arachidonic acid (The Radiochemical Centre, Amersham, U.K.) and incubated for 90 minutes at 30° C. This caused labelling of cell membrane phospholipids as radioactive arachidonic acid was incorporated in the 2-position of the glycerol moiety. Excess arachidonic acid was then removed by washing the cells twice as described above. The cells were finally resuspended in the same solution at 10^7 cells/ml. 475 μl of the cell suspension was preincubated at 37° C. for 5 minutes with either 5 μl DMSO (control tube), or 5 μl of a drug solution in DMSO. Then 20 μl of a mixture of equal volumes of the calcium ionophore A 23187, 10^-4 M in ethanol (Calbiochem, U.S.A.), and 0.5M CaCl2 in water was added. The final concentration of A 23187 was thus 2×10^-6 M, transferred to an ice-bath and centrifugated for 10 minutes at 3,000 g (4° C.). An aliquot of the supernatant was counted by liquid scintillation spectrometry in order to calculate the total radioactive release induced by A 23187 in presence of drugs. […] Radioactive spots were detected by autoradiography (AGFA-GEVAERT, Osray-RPI X-ray film, Belgium), and changes induced by drugs in the metabolic pattern of arachidonic acid were quantified by a laser densitometer (LKB, Ultroscan™ 2202, Bromma, Sweden) in combination with an integrating computer (SP 4100, SpectraPhysics, San Jose, Calif., U.S.A.). […]

For assay [9], the system named is asthmatic reaction (airway resistance) in guinea-pigs. The assay can be described thus: Asthmatic reaction in ovalbumin-hypersensitive guinea-pigs (Konzett-Rossler). In kind it is in vivo, guinea-pig. The note with it: ovalbumin i.v. challenge; mepyramine, indomethacin and propranolol pretreated. An excerpt: The other method was used to measure a physiological consequence of leukotriene release in the lungs, an asthmatic attack. Guinea-pigs hypersensitive to ovalbumin were anaestesized and mechanically ventilated with a constant airvolumen ad modum Konzett-Rossler. The animals were pretreated with mepyramine, indomethacin and propranolol to avoid interference with endogenous production of histamine, prostaglandins and β-adrenergic mechanisms, respectively. They were then challenged with an intravenous injection of ovalbumin, and the increase in airway resistance was measured by the respiratory overflow.

The subject of assay [10] is 5-lipoxygenase. The assay can be described thus: 5-lipoxygenase activity in vitro in A 23187-stimulated rat peritoneal cells (radiolabelled arachidonic acid metabolites). In kind it is cell-based. The settings on record: final concentrations from 10^-6 M and above. Here is the method: as §2, with “This caused labelling of cell membrane phospholipids as radioactive arachidonic acid was incorporated in the 2-position of the glycerol moiety. Excess arachidonic acid was then removed by washing the cells twice as described above. The cells were finally resuspended in the same solution at 10^7 cells/ml. 475 μl of the cell suspension was preincubated at 37° C. for 5 minutes with either 5 μl DMSO (control tube), or 5 μl of a drug solution in DMSO. Then 20 μl of a mixture of equal volumes of the calcium ionophore A 23187, 10^-4 M in ethanol (Calbiochem, U.S.A.), and 0.5M CaCl2 in water was added. The final concentration of A 23187 was thus 2×10^-6 M, transferred to an ice-bath and centrifugated for 10 minutes at 3,000 g (4° C.).” left out

Setting [11] is: antigen ovalbumin, passively sensitized mast cells, read-out: Inhibition (%) of histamine release induced by Antigen.
[12] abbreviates: compound 48/80, unsensitized mast cells, read-out: Inhibition (%) of histamine release induced by Cp. 48/80.

Like-named read-outs stand apart in the source and are kept apart here.

As to `CC(=O)Nc1cccc(OCc2ccc3ccccc3n2)c1` [11 (part A), 3-(2'-Quinolylmethoxy)acetanilide], in [1], the “concentration at which leukotriene D4-induced contraction is inhibited” value is given as “submicromolar range”.

Take `CNc1cccc(OCc2ccc3ccccc3n2)c1` [11 (part C), 3-(2'-Quinolylmethoxy)-N-methylaniline]: the “concentration at which leukotriene D4-induced contraction is inhibited” value in [1] was “submicromolar range”.

For the compound `O=C(O)c1ccc(CN(Cc2cccc(F)c2)c2ccc(OCc3ccc4ccccc4n3)cc2)cc1` [ETH615, 4-(2'-quinolylmethoxy)-N-(3"-fluorobenzyl)-N-(4'"-carboxybenzyl)aniline], in assay [2] (endothelial cells stimulated by LPS or IL-1), the “gene expression of IL-8 in endothelial cells” value was “suppress the gene expression of IL-8”. The “gene expression of IL-8 in fibroblasts” value in assay [2] (fibroblasts stimulated by LPS or IL-1) is recorded as “suppress the gene expression of IL-8”. Further, the “gene expression of IL-8 in keratinocytes” value in assay [2] (keratinocytes stimulated by LPS or IL-1) is “suppress the gene expression of IL-8”. Also, in [3], the “IL-1 mRNA production” value is given as “inhibits IL-1 mRNA production”. In addition, the “synthesis of IL-8 messenger RNA” value in assay [4] was “inhibit the synthesis of messenger RNA”. Moreover, the IL-1 release result in assay [5] was “suppression of IL-1 release”.

As to `O=C(O)c1cccc(CN(Cc2ccccc2)c2ccc(OCc3ccc4ccccc4n3)cc2)c1` [ETH647], the “synthesis of IL-8 messenger RNA” value in [4] is listed as “inhibit the synthesis of messenger RNA”.

In the case of `CNc1ccc(OCc2ccc3ccccc3n2)cc1` [Ex. 10, part C, 4-(2'-Quinolylmethoxy)-N-methylaniline], the inhibition at 10 µM in assay [6] (setting [11]) worked out at 51%; in assay [6] (setting [12]), 19%.

As for `c1ccc(CNc2ccc(OCc3ccc4ccccc4n3)cc2)cc1` [Ex. 38, 4-(2'-Quinolylmethoxy)-N-benzylaniline], the results for the inhibition at 10 µM in assay [6] (setting [11]) and in [6] (setting [12]) were 91% and 85%, respectively.

With `NCCCCCCNc1ccc(OCc2ccc3ccccc3n2)cc1` [Ex. 66, 4-(2'-Quinolylmethoxy)-N-1"-(6"-amino-n-hexyl)aniline], the inhibition at 10 µM in assay [6] (setting [11]) was 100%; in assay [6] (setting [12]) it was 65%.

In the case of `c1ccc(CNc2cccc(OCc3ccccn3)c2)cc1` [Ex. 68, 3-(2'-Pyridylmethoxy)-N-benzylaniline], the inhibition at 10 µM in [6] (setting [11]) came to 45%; in assay [6] (setting [12]), 17%.

With `CCCNc1ccc(OCc2ccccn2)cc1` [Ex. 70], the inhibition at 10 µM in assay [6] (setting [11]) was 100%; in assay [6] (setting [12]), 45%.

As to `CCCN(CCC)c1ccc(OCc2ccc3ccccc3n2)cc1` [Ex. 77, 4-(2'-Quinolylmethoxy)-N,N-di-n-propylaniline], the inhibition at 10 µM turned out to be 100% in assay [6] (setting [11]) and 92% in assay [6] (setting [12]).

For `Clc1cc(OCc2ccncc2)ccc1NCc1ccccc1` [Ex. 78, part C, 2-Chloro-4-(4'-pyridylmethoxy)-N-benzylaniline], the results for the inhibition at 10 µM in assay [6] (setting [11]) and in assay [6] (setting [12]) were 96% and 95%, respectively. Further, the “concentration at which leukotriene D4-induced contraction is inhibited” value in [1] is recorded as “submicromolar range”.

Turning to `Clc1cc(NCc2ccccc2)ccc1OCc1ccncc1` [Ex. 79, part C, 3-Chloro-4-(4'-pyridylmethoxy)-N-benzylaniline], the inhibition at 10 µM in assay [6] (setting [11]) came to 100%; in assay [6] (setting [12]), 95%.

For the compound `CN(C)c1cccc(OCc2ccc3ccccc3n2)c1` [Example 18, 3-(2'-Quinolylmethoxy)-N,N-dimethylaniline], the “concentration at which leukotriene D4-induced contraction is inhibited” value in [1] is on record as “submicromolar range”.

With `CCCCNc1ccc(OCc2ccc3ccccc3n2)cc1` [Example 22, 4-(2'-Quinolylmethoxy)-N-n-butylaniline], the inhibition at 10 µM in [6] (setting [11]) came to 100%; in assay [6] (setting [12]) it was 75%. Besides, the “concentration at which leukotriene D4-induced contraction is inhibited” value in [1] is “submicromolar range”.

`CCCCNc1cccc(OCc2ccc3ccccc3n2)c1` [Example 23, 3-(2'-Quinolylmethoxy)-N-n-butylaniline]: the “concentration at which leukotriene D4-induced contraction is inhibited” value in [1] is given as “submicromolar range”.

`c1ccc(CNc2cccc(OCc3ccc4ccccc4n3)c2)cc1` [Example 39, 3-(2'-Quinolylmethoxy)-N-benzylaniline]: the inhibition at 10 µM was 100% in assay [6] (setting [11]) and 95% in [6] (setting [12]). The “concentration at which leukotriene D4-induced contraction is inhibited” value in assay [1] is given as “submicromolar range”.

On to `CNc1ccc(OCc2cccnc2)cc1` [OT 3447, 4-(3'-Pyridylmethoxy)-N-methylaniline], for which, in assay [7], the “leukotriene B4 formation (radioimmunoassay)” value is “substantial inhibition”; the “leukotriene C4 formation (radioimmunoassay)” value is “substantial inhibition”; the “leukotriene D4 formation (bioassay, guinea-pig ileum-strip)” value is “substantial inhibition”. In assay [8], the “synthesis of prostaglandin D2” value was “not affected”, the “synthesis of the cyclooxygenase product HHT” value is recorded as “not affected” and the “synthesis of thromboxane B2” value was “not affected”. In addition, the asthmatic reaction result in assay [9] was “significantly reduced”. In assay [10], the “production of 5-HETE” value was “significant and specific decrease”; the “production of leukotriene B4” value is “significant and specific decrease”.
